Assay results reported in paper PMC7946776 (Journal of immunology (Baltimore, Md. : 1950), 2021).

Target: mouse Asah2 (Mus musculus, UniProt Q9JHE3)
Assay: fluorogenic ceramidase activity assay
Assay type: biochemical

Sequence of mouse Asah2 (Q9JHE3 whole entry): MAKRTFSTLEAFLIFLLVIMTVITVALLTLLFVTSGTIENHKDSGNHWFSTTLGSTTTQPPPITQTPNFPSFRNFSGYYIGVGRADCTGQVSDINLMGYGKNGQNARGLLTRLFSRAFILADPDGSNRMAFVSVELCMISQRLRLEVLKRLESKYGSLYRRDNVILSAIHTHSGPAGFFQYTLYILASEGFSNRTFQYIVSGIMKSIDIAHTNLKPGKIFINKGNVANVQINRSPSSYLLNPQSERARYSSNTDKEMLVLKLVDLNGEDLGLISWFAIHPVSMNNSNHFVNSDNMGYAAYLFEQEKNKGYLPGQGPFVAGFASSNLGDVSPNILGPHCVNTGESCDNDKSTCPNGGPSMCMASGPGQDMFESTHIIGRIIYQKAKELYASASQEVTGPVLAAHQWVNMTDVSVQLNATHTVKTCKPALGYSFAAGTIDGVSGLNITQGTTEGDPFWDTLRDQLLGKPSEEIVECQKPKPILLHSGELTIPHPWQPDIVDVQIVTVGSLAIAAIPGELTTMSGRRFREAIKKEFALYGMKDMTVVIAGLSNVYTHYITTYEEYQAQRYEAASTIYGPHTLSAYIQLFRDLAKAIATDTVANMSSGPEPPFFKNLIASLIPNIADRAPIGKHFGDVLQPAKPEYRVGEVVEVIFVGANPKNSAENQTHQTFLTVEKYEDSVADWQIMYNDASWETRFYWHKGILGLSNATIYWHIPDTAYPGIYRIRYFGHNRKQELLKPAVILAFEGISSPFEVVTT

For `O=c1nc(Nc2cccc(Cl)c2)oc2cc(Cl)oc(=O)c12` [NC06, 7-chloro-2-(3-chloroanilino)pyrano[3,4-e][1,3]oxazine-4,5-dione], the IC50 was 30.2 µM.
